{
  "source": "paper PMC9516332",
  "about": "(Frontiers in Oncology, 2022)",
  "key": {"[1]": {"system": "134 cancer cell lines", "test": "Cell viability assay (ATPlite, 72 hours), IC50 on cancer cell line panel"}, "[2]": {"system": "AP-1060 (ETV6-NTRK3)", "test": "Cell viability assay", "conditions": "read-out: IC50 in cell proliferation assay"}},
  "note": "Like-named read-outs stand apart in the source and are kept apart here.",
  "data": [
    {"smiles": "CCCS(=O)(=O)Nc1ccc(F)c(C(=O)c2c[nH]c3ncc(-c4ccc(Cl)cc4)cc23)c1F", "note": "[vemurafenib]", "values": [
      {"measurement": "IC50", "setting": "[1]; Homo sapiens, MV4-11, read-out: IC50 in cell proliferation assay, MV4-11 cell line (FLT3 ITD)", "value": 31.2, "unit": "µM"},
      {"measurement": "IC50", "setting": "[1]; Homo sapiens, MeWo, read-out: IC50 in cell proliferation assay, MeWo cell line", "value": "> 31.6", "unit": "µM"},
      {"measurement": "IC50", "setting": "[1]; Homo sapiens, NCCIT, read-out: IC50 in cell proliferation assay, NCC-IT cell line", "value": 25.5, "unit": "µM"},
      {"measurement": "IC50", "setting": "[1]; Homo sapiens, NCI-H82, read-out: IC50 in cell proliferation assay, cell line NCI-H82", "value": 22.8, "unit": "µM"},
      {"measurement": "IC50", "setting": "[1]; Homo sapiens, NCI-H460, read-out: IC50 in cell proliferation assay, NCI-H460 cell line", "value": 26.9, "unit": "µM"},
      {"measurement": "IC50", "setting": "[1]; Homo sapiens, NCI-H661, read-out: IC50 in cell proliferation assay, NCI-H661 cell line", "value": "> 31.6", "unit": "µM"},
      {"measurement": "IC50", "setting": "[1]; Homo sapiens, NCI-H716, read-out: IC50 in cell proliferation assay, cell line NCI-H716 (FGFR2-COL14A1)", "value": "> 31.6", "unit": "µM"},
      {"measurement": "IC50", "setting": "[1]; Homo sapiens, NCI-H1650, read-out: IC50 in cell proliferation assay, NCI-H1650 cell line (EGFR exon19del)", "value": "> 31.6", "unit": "µM"},
      {"measurement": "IC50", "setting": "[1]; Homo sapiens, NCI-H1975, read-out: IC50 in cell proliferation assay, NCI-H1975 cell line (EGFR p.L858R + p.T790M)", "value": "> 31.6", "unit": "µM"},
      {"measurement": "IC50", "setting": "[1]; Homo sapiens, NCI-H2228, read-out: IC50 in cell proliferation assay, NCI-H2228 cell line (EML4-ALK)", "value": "> 31.6", "unit": "µM"},
      {"measurement": "IC50", "setting": "[1]; Homo sapiens, OVCAR-3, read-out: IC50 in cell proliferation assay, cell line OVCAR-3", "value": "> 31.6", "unit": "µM"},
      {"measurement": "IC50", "setting": "[1]; Homo sapiens, PFSK-1, read-out: IC50 in cell proliferation assay, cell line PFSK-1", "value": "> 31.6", "unit": "µM"},
      {"measurement": "IC50", "setting": "[1]; Homo sapiens, RL95-2, read-out: IC50 in cell proliferation assay, cell line RL95-2 (EGFR p.A289V)", "value": "> 31.6", "unit": "µM"},
      {"measurement": "IC50", "setting": "[1]; Homo sapiens, RPMI-7951, read-out: IC50 in cell proliferation assay, cell line RPMI-7951 (BRAF p.V600E)", "value": 15.7, "unit": "µM"},
      {"measurement": "IC50", "setting": "[1]; Homo sapiens, RS4-11, read-out: IC50 in cell proliferation assay, cell line RS4;11", "value": "> 31.6", "unit": "µM"},
      {"measurement": "IC50", "setting": "[1]; Homo sapiens, Rec1, read-out: IC50 in cell proliferation assay, cell line REC-1", "value": 8.15, "unit": "µM"},
      {"measurement": "IC50", "setting": "[1]; Homo sapiens, SHP77, read-out: IC50 in cell proliferation assay, cell line SHP-77", "value": "> 31.6", "unit": "µM"},
      {"measurement": "IC50", "setting": "[1]; Homo sapiens, SK-BR-3, read-out: IC50 in cell proliferation assay, cell line SK-BR-3 (ERBB2 amplification)", "value": "> 31.6", "unit": "µM"},
      {"measurement": "IC50", "setting": "[1]; Homo sapiens, SK-N-AS, read-out: IC50 in cell proliferation assay, cell line SK-N-AS", "value": "> 31.6", "unit": "µM"},
      {"measurement": "IC50", "setting": "[1]; Homo sapiens, SK-N-FI, read-out: IC50 in cell proliferation assay, cell line SK-N-FI", "value": "> 31.6", "unit": "µM"},
      {"measurement": "IC50", "setting": "[1]; Homo sapiens, SK-N-MC, read-out: IC50 in cell proliferation assay, cell line SK-N-MC", "value": "> 31.6", "unit": "µM"},
      {"measurement": "IC50", "setting": "[1]; Homo sapiens, SK-N-SH, read-out: IC50 in cell proliferation assay, cell line SK-N-SH (ALK p.F1174L)", "value": "> 31.6", "unit": "µM"},
      {"measurement": "IC50", "setting": "[1]; Homo sapiens, SNU-5, read-out: IC50 in cell proliferation assay, cell line SNU-5 (MET amplification)", "value": 31.4, "unit": "µM"},
      {"measurement": "IC50", "setting": "[1]; Homo sapiens, SNU-16, read-out: IC50 in cell proliferation assay, cell line SNU-16 (FGFR2 amplification)", "value": "> 31.6", "unit": "µM"},
      {"measurement": "IC50", "setting": "[1]; Homo sapiens, SNU-C2B, read-out: IC50 in cell proliferation assay, cell line SNU-C2B (EGFR p.R165Q)", "value": "> 31.6", "unit": "µM"},
      {"measurement": "IC50", "setting": "[1]; Homo sapiens, SU-DHL-1, read-out: IC50 in cell proliferation assay, cell line SU-DHL-1 (NPM1-ALK)", "value": 23.5, "unit": "µM"},
      {"measurement": "IC50", "setting": "[1]; Homo sapiens, SU-DHL-6, read-out: IC50 in cell proliferation assay, cell line SU-DHL-6", "value": "> 31.6", "unit": "µM"},
      {"measurement": "IC50", "setting": "[1]; Homo sapiens, SUP-T1, read-out: IC50 in cell proliferation assay, cell line SUP-T1", "value": "> 31.6", "unit": "µM"},
      {"measurement": "IC50", "setting": "[1]; Homo sapiens, SW48, read-out: IC50 in cell proliferation assay, cell line SW48 (EGFR p.G719S)", "value": "> 31.6", "unit": "µM"},
      {"measurement": "IC50", "setting": "[1]; Homo sapiens, SW480, read-out: IC50 in cell proliferation assay, cell line SW480", "value": "> 31.6", "unit": "µM"},
      {"measurement": "IC50", "setting": "[1]; Homo sapiens, SW626, read-out: IC50 in cell proliferation assay, cell line SW626", "value": "> 31.6", "unit": "µM"},
      {"measurement": "IC50", "setting": "[1]; Homo sapiens, SW780, read-out: IC50 in cell proliferation assay, cell line SW780 (FGFR3-BAIAP2L1)", "value": "> 31.6", "unit": "µM"},
      {"measurement": "IC50", "setting": "[1]; Homo sapiens, SW837, read-out: IC50 in cell proliferation assay, cell line SW837", "value": "> 31.6", "unit": "µM"},
      {"measurement": "IC50", "setting": "[1]; Homo sapiens, SW872, read-out: IC50 in cell proliferation assay, cell line SW872 (BRAF p.V600E)", "value": 1.15, "unit": "µM"},
      {"measurement": "IC50", "setting": "[1]; Homo sapiens, SW900, read-out: IC50 in cell proliferation assay, cell line SW900", "value": 26.7, "unit": "µM"},
      {"measurement": "IC50", "setting": "[1]; Homo sapiens, SW948, read-out: IC50 in cell proliferation assay, cell line SW948", "value": "> 31.6", "unit": "µM"},
      {"measurement": "IC50", "setting": "[1]; Homo sapiens, SW982, read-out: IC50 in cell proliferation assay, cell line SW982 (BRAF p.V600E)", "value": 22.3, "unit": "µM"},
      {"measurement": "IC50", "setting": "[1]; Homo sapiens, SW-620, read-out: IC50 in cell proliferation assay, cell line SW620", "value": "> 31.6", "unit": "µM"},
      {"measurement": "IC50", "setting": "[1]; Homo sapiens, T98G, read-out: IC50 in cell proliferation assay, cell line T98G", "value": 19.1, "unit": "µM"},
      {"measurement": "IC50", "setting": "[1]; Homo sapiens, TCC-SUP, read-out: IC50 in cell proliferation assay, cell line TCCSUP", "value": "> 31.6", "unit": "µM"},
      {"measurement": "IC50", "setting": "[1]; Homo sapiens, THP-1, read-out: IC50 in cell proliferation assay, cell line THP-1", "value": "> 31.6", "unit": "µM"},
      {"measurement": "IC50", "setting": "[1]; Homo sapiens, U2OS, read-out: IC50 in cell proliferation assay, cell line U2OS", "value": "> 31.6", "unit": "µM"},
      {"measurement": "IC50", "setting": "[1]; Homo sapiens, U-87 MG, read-out: IC50 in cell proliferation assay, cell line U-87MG ATCC", "value": "> 31.6", "unit": "µM"},
      {"measurement": "IC50", "setting": "[1]; Homo sapiens, U-118-MG, read-out: IC50 in cell proliferation assay, cell line U-118MG", "value": "> 31.6", "unit": "µM"},
      {"measurement": "IC50", "setting": "[1]; Homo sapiens, UMUC3, read-out: IC50 in cell proliferation assay, cell line UM-UC-3", "value": "> 31.6", "unit": "µM"},
      {"measurement": "IC50", "setting": "[1]; Hs766T, read-out: IC50 in cell proliferation assay, Hs 766T cell line", "value": "> 31.6", "unit": "µM"},
      {"measurement": "IC50", "setting": "[1]; L-82, read-out: IC50 in cell proliferation assay, L-82 cell line (NPM1-ALK)", "value": 26.8, "unit": "µM"},
      {"measurement": "IC50", "setting": "[1]; Rh30, read-out: IC50 in cell proliferation assay, cell line Rh30", "value": "> 31.6", "unit": "µM"},
      {"measurement": "IC50", "setting": "[1]; read-out: IC50 in cell proliferation assay, 11-18 cell line (EGFR p.L858R)", "value": "> 31.6", "unit": "µM"},
      {"measurement": "IC50", "setting": "[1]; read-out: IC50 in cell proliferation assay, Hs 852.T cell line", "value": "> 31.6", "unit": "µM"},
      {"measurement": "IC50", "setting": "[1]; read-out: IC50 in cell proliferation assay, JAR cell line", "value": 14.7, "unit": "µM"},
      {"measurement": "IC50", "setting": "[1]; read-out: IC50 in cell proliferation assay, cell line 5637", "value": 25.1, "unit": "µM"},
      {"measurement": "IC50", "setting": "[1]; read-out: IC50 in cell proliferation assay, cell line A-388", "value": "> 31.6", "unit": "µM"},
      {"measurement": "IC50", "setting": "[1]; read-out: IC50 in cell proliferation assay, cell line DB", "value": 24.5, "unit": "µM"},
      {"measurement": "IC50", "setting": "[1]; read-out: IC50 in cell proliferation assay, cell line DEL (NPM1-ALK)", "value": "> 31.6", "unit": "µM"},
      {"measurement": "IC50", "setting": "[1]; read-out: IC50 in cell proliferation assay, cell line ES-2 (BRAF p.V600E)", "value": 2.33, "unit": "µM"},
      {"measurement": "IC50", "setting": "[1]; read-out: IC50 in cell proliferation assay, cell line PA-1", "value": 15.7, "unit": "µM"},
      {"measurement": "IC50", "setting": "[1]; read-out: IC50 in cell proliferation assay, cell line PC-3", "value": "> 31.6", "unit": "µM"},
      {"measurement": "IC50", "setting": "[1]; read-out: IC50 in cell proliferation assay, cell line RD", "value": "> 31.6", "unit": "µM"},
      {"measurement": "IC50", "setting": "[1]; read-out: IC50 in cell proliferation assay, cell line RKO (BRAF p.V600E)", "value": 3.08, "unit": "µM"},
      {"measurement": "IC50", "setting": "[1]; read-out: IC50 in cell proliferation assay, cell line RL", "value": 24.8, "unit": "µM"},
      {"measurement": "IC50", "setting": "[1]; read-out: IC50 in cell proliferation assay, cell line RT-4 (FGFR3-TACC3)", "value": "> 31.6", "unit": "µM"},
      {"measurement": "IC50", "setting": "[1]; read-out: IC50 in cell proliferation assay, cell line T24", "value": 30.7, "unit": "µM"},
      {"measurement": "IC50", "setting": "[1]; read-out: IC50 in cell proliferation assay, cell line TT (RET p.C634W)", "value": "> 31.6", "unit": "µM"},
      {"measurement": "IC50", "setting": "[1]; read-out: IC50 in cell proliferation assay, cell line VA-ES-BJ", "value": "> 31.6", "unit": "µM"},
      {"measurement": "IC50", "setting": "[2]", "value": 31.6, "unit": "µM"}
    ]}
  ]
}
